Assay results from patent publication US10927125B2, “Substituted cinnolines as inhibitors of KRAS G12C” (Araxes Pharma LLC, priority 2013, dated 2021).

Biological target: T1, KRAS G12C 1-169, his-tagged protein, GDP-loaded (Homo sapiens, UniProt P01116, G12C)
T1 construct: KRAS G12C 1-169, his-tagged protein, GDP-loaded
Experiment: Biochemical assay: covalent binding of compounds to KRAS G12C, analysed by mass spectrometry
Protocol: Compounds were tested for activity as follows:
Compounds were diluted to 50× final test concentration in DMSO in 96-well storage plates. […] Reactions were mixed carefully and thoroughly by pipetting up/down with a 200 μl multi-channel pipettor. The plate was sealed well with aluminum plate seal, and stored in drawer at room temperature for 30 min, 2 hour or 24 hrs. 51 μl of 2% formic acid (Fisher cat # A117) in DI H2O was then added to each well followed by mixing with a pipette. The plate was then resealed with aluminum seal and stored on dry ice until analyzed as described below.
The above described assays were analyzed by mass spectrometry according to the following procedure:
The MS instrument is set to positive polarity, 2 GHz resolution, and low mass (1700) mode and allowed to equilibrate for 30 minutes. The instrument is then calibrated, switched to acquisition mode and the appropriate method loaded.
After another 30 minute equilibration time, a blank batch (i.e., buffer) is run to ensure equipment is operating properly. The samples are thawed at 37° C. for 10 minutes, briefly centrifuged, and transfer to the bench top. Wells A1 and H12 are spiked with 1 uL 500 uM internal standard peptide, and the plates centrifuged at 2000×g for 5 minutes. The method is then run and masses of each individual well recorded.
The masses (for which integration data is desired) for each well are pasted into the platemap and exported from the analysis. Masses for the internal standards are exported as well. The data at 50 ppm is extracted for the +19 charge state, and identity of well A1 is assigned using the internal standard spike and integrated. Peak data is exported as a TOF list and the above steps are repeated individually, for the +20, 21, 22, 23, 24, and 25 charge states.

[1] = binding measured at 30 min (compounds 247-375)
[2] = binding measured at 2 h (compounds 48-246)
[3] = binding measured at 24 h (compounds 1-47)

T1 sequence (P01116 1-169 isoform P01116-2 G12C): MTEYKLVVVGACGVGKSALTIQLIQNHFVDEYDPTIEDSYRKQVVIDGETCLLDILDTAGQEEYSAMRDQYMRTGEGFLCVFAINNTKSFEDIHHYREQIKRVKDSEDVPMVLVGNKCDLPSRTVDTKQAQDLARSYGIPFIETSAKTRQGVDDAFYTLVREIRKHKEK

Row | SMILES | Binding % [1] | also measured
1 | C/C=C/C(=O)N1CCN(c2ncnc3c(F)c(-c4cc(O)cc5ccccc45)c(Cl)cc23)CC1 [Compound 328, (E)-1-(4-(6-chloro-8-fluoro-7-(3-hydroxynaphthalen-1-yl)quinazolin-4-yl)piperazin-1-yl)but-2-en-1-one] | + (+ indicates binding activity from 5% to 25%) | –
2 | C=CC(=O)N1CCN(c2nc(NC3CCN(C)C3)nc3c(F)c(-c4cc(O)cc5ccccc45)c(Cl)cc23)CC1 (stereo not drawn) [Compound 360, 1-(4-(6-chloro-8-fluoro-7-(3-hydroxynaphthalen-1-yl)-2-(1-methylpyrrolidin-3-ylamino)quinazolin-4-yl)piperazin-1-yl)prop-2-en-1-one] | ++++ (++++ indicates binding activity greater than 75%) | –
3 | C=CC(=O)N1CCN(c2ncnc3cc(-c4ccc(F)cc4C(F)(F)F)c(Cl)cc23)CC1 [Compound 119, 1-(4-(6-chloro-7-(4-fluoro-2-(trifluoromethyl)phe-nyl)quinazolin-4-yl)piperazin-1-yl)prop-2-en-1-one] | – | Binding % [2]: +++ (+++ indicates binding activity greater than 50% and up to 75%)
4 | C=CC(=O)N1CCN(c2nccc3cc(Cl)c(-c4ccc(Cl)cc4O)cc23)CC1 [Compound 38, 1-(4-(6-chloro-7-(4-chloro-2-hydroxyphenyl)isoquinolin-1-yl)piperazin-1-yl)prop-2-en-1-one] | – | Binding % [3]: ++ (++ indicates binding activity greater than 25% and up to 50%)
5 | C=CC(=O)N1CCN(c2nc(NC3CCN(C)C3)nc3c(F)c(-c4c(C)ccc5[nH]ncc45)c(Cl)cc23)CC1 (stereo not drawn) [Compound 372, 1-(4-(6-chloro-8-fluoro-7-(5-methyl-1H-indazol-4-yl)-2-(1-methylpyrrolidin-3-ylamino)quinazolin-4-yl)piperazin-1-yl)prop-2-en-1-one] | +++ (+++ indicates binding activity greater than 50% and up to 75%) | –
6 | C=CC(=O)N1CCN(c2nc(OCCNC(C)=O)nc3c(F)c(-c4c(C)ccc5[nH]ncc45)c(Cl)cc23)CC1 [Compound 366, N-(2-(4-(4-acryloylpiperazin-1-yl)-6-chloro-8-fluoro-7-(5-methyl-1H-indazol-4-yl)quinazolin-2-yloxy)ethyl)acetamide] | ++++ (++++ indicates binding activity greater than 75%) | –
7 | C=CC(=O)N1CCN(c2nc(OCCCN3CCOCC3)nc3c(F)c(-c4c(C)ccc5[nH]ncc45)c(Cl)cc23)CC1 [Compound 357, 1-(4-(6-chloro-8-fluoro-7-(5-methyl-1H-indazol-4-yl)-2-(3-morpholinopropoxy)quinazolin-4-yl)piperazin-1-yl)prop-2-en-1-one] | ++++ (++++ indicates binding activity greater than 75%) | –
8 | C#Cc1cnc2cc(-c3ccccc3F)c(Cl)cc2c1N1CCN(C(=O)C=C)CC1 [Compound 215, 1-(4-(6-chloro-3-ethynyl-7-(2-fluorophenyl)quinolin-4-yl)piperazin-1-yl)prop-2-en-1-one] | – | Binding % [2]: ++ (++ indicates binding activity greater than 25% and up to 50%)
9 | C=CC(=O)N1CCN(c2ncnc3c(F)c(-c4cc(O)cc5ccccc45)c(Cl)cc23)CC1CO (stereo not drawn) [Compound 256, 1-(4-(6-chloro-8-fluoro-7-(3-hydroxynaphthalen-1-yl)quinazolin-4-yl)-2-(hydroxymethyl)piperazin-1-yl)prop-2-en-1-one] | +++ (+++ indicates binding activity greater than 50% and up to 75%) | –
10 | C=CC(=O)N1CCN(c2nc(N(C)CCN(C)C)nc3c(F)c(-c4cc(O)cc5ccccc45)c(Cl)cc23)CC1 [Compound 361, 1-(4-(6-chloro-2-((2-(dimethylamino)ethyl)(meth-yl)amino)-8-fluoro-7-(3-hydroxynaphthalen-1-yl)quinazolin-4-yl)piperazin-1-yl)prop-2-en-1-one] | ++++ (++++ indicates binding activity greater than 75%) | –
11 | C=CC(=O)N1CCN(c2nc(OCCN(C)C)nc3c(F)c(-c4c(C)ccc5[nH]ncc45)c(Cl)cc23)CC1C (stereo not drawn) [Compound 367, 1-(4-(6-chloro-2-(2-(dimethylamino)ethoxy)-8-fluoro-7-(5-methyl-1H-indazol-4-yl)quinazolin-4-yl)-2-methylpiperazin-1-yl)prop-2-en-1-one] | ++++ (++++ indicates binding activity greater than 75%) | –
12 | C=CC(=O)N1CCN(c2nc(NCCN(C)C)nc3c(F)c(-c4cc(O)cc5ccccc45)c(Cl)cc23)CC1 [Compound 355, 1-(4-(6-chloro-2-(2-(dimethylamino)ethylamino)-8-fluoro-7-(3-hydroxynaphthalen-1-yl)quinazolin-4-yl)piperazin-1-yl)prop-2-en-1-one] | ++++ (++++ indicates binding activity greater than 75%) | –
13 | C=CC(=O)N1CCN(c2nc(N(C)C)nc3c(F)c(-c4cc(O)cc5ccccc45)c(Cl)cc23)CC1 [Compound 344, 1-(4-(6-chloro-2-(dimethylamino)-8-fluoro-7-(3-hydroxynaphthalen-1-yl)quinazolin-4-yl)piperazin-1-yl)prop-2-en-1-one] | +++ (+++ indicates binding activity greater than 50% and up to 75%) | –
14 | C=CC(=O)N1CCN(c2ncnc3cc(-c4cc(C)cc5[nH]ncc45)c(Cl)cc23)CC1 [Compound 262, 1-(4-(6-chloro-7-(6-methyl-1H-indazol-4-yl)quinazolin-4-yl)piperazin-1-yl)prop-2-en-1-one] | + (+ indicates binding activity from 5% to 25%) | –
15 | C=CC(=O)N1CCN(c2ncnc3cc(-c4c(O)cccc4F)c(Cl)cc23)CC1 [Compound 138, 1-(4-(6-chloro-7-(2-fluoro-6-hydroxyphenyl)quinazolin-4-yl)piperazin-1-yl)prop-2-en-1-one] | – | Binding % [2]: ++++ (++++ indicates binding activity greater than 75%)
16 | C=CC(=O)N1CCN(c2nc(N)nc3cc(Cl)c(-c4ccc(Cl)cc4)cc23)CC1 [Compound 39, 1-(4-(2-amino-7-chloro-6-(4-chlorophenyl)quinazolin-4-yl)piperazin-1-yl)prop-2-en-1-one] | – | Binding % [3]: + (+ indicates binding activity from 5% to 25%)
17 | C=CC(=O)N1CCN(c2nc(NC3CCOCC3)nc3c(F)c(-c4c(C)ccc5[nH]ncc45)c(Cl)cc23)CC1 [Compound 365, 1-(4-(6-chloro-8-fluoro-7-(5-methyl-1H-indazol-4-yl)-2-(tetrahydro-2H-pyran-4-ylamino)quinazolin-4-yl)piperazin-1-yl)prop-2-en-1-one] | ++++ (++++ indicates binding activity greater than 75%) | –
18 | C=CC(=O)N1CCN(c2nc(OCCN(C)C)nc3c(F)c(-c4cc(O)cc5ccccc45)c(Cl)cc23)CC1 [Compound 374, 1-(4-(6-chloro-2-(2-(dimethylamino)ethoxy)-8-fluoro-7-(3-hydroxynaphthalen-1-yl)quinazolin-4-yl)piperazin-1-yl)prop-2-en-1-one] | +++ (+++ indicates binding activity greater than 50% and up to 75%) | –
19 | C=CC(=O)N1CCN(c2ncnc3cc(Cl)c(-c4ccc(Br)cc4)cc23)CC1 [Compound 40, 1-(4-(6-(4-bromophenyl)-7-chloroquinazolin-4-yl)piperazin-1-yl)prop-2-en-1-one] | – | Binding % [3]: +++ (+++ indicates binding activity greater than 50% and up to 75%)
20 | C=CC(=O)N1CCN(c2nc(N(C)CCN(C)C)nc3c(F)c(-c4c(C)ccc5[nH]ncc45)c(Cl)cc23)CC1 [Compound 371, 1-(4-(6-chloro-2-((2-(dimethylamino)ethyl)(meth-yl)amino)-8-fluoro-7-(5-methyl-1H-indazol-4-yl)quinazolin-4-yl)piperazin-1-yl)prop-2-en-1-one] | ++ (++ indicates binding activity greater than 25% and up to 50%) | –
21 | C=CC(=O)N1CCN(c2ncnc3cc(-c4cc(Cl)cc5[nH]ncc45)c(Cl)cc23)CC1 [Compound 266, 1-(4-(6-chloro-7-(6-chloro-1H-indazol-4-yl)quinazolin-4-yl)piperazin-1-yl)prop-2-en-1-one] | +++ (+++ indicates binding activity greater than 50% and up to 75%) | –
22 | C=CC(=O)N1CCN(c2ncnc3c(OC)c(-c4cc(O)cc5ccccc45)c(Cl)cc23)CC1 [Compound 348, 1-(4-(6-chloro-7-(3-hydroxynaphthalen-1-yl)-8-methoxyquinazolin-4-yl)piperazin-1-yl)prop-2-en-1-one] | ++++ (++++ indicates binding activity greater than 75%) | –
23 | C=CC(=O)N1CCN(c2nc(NC3CCN(CC(F)(F)F)C3)nc3c(F)c(-c4c(C)ccc5[nH]ncc45)c(Cl)cc23)CC1 (stereo not drawn) [Compound 354, 1-(4-(6-chloro-8-fluoro-7-(5-methyl-1H-indazol-4-yl)-2-(1-(2,2,2-trifluoroethyl)pyrrolidin-3-ylamino)quinazolin-4-yl)piperazin-1-yl)prop-2-en-1-one] | ++++ (++++ indicates binding activity greater than 75%) | –
24 | C=CC(=O)N1CCN(c2ncnc3c(OC)c(-c4c(C)ccc5[nH]ncc45)c(Cl)cc23)CC1 [Compound 302, 1-(4-(6-chloro-8-methoxy-7-(5-methyl-1H-indazol-4-yl)quinazolin-4-yl)piperazin-1-yl)prop-2-en-1-one] | +++ (+++ indicates binding activity greater than 50% and up to 75%) | –
